What was measured:
barnyard grass [1] = experiment: Test Example 4: herbicidal effect by soil treatment (Table 19, symbol H); assay type: in vivo, barnyard grass (Echinochloa crus-galli); conditions: amount of applied herbicide 320 g/ha
In short: (§1)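 Soil-surface application: an emulsion agent diluted with water to the predetermined dose is sprayed uniformly over seeds lying under roughly 1.5 cm of sterilized diluvial soil. Boxes stay in a greenhouse at 25° C. to 30° C. Three weeks later, each species is graded on previously defined criteria.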

velvetleaf [2] = experiment: Test Example 5: herbicidal effect by foliage application, plastic box (Table 20, symbol M); assay type: in vivo, velvetleaf (Abutilon theophrasti); conditions: amount of applied herbicide 320 g/ha; foliage application after 14-day growth; evaluated three weeks after application
In short: (§2)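 Sow seeds spot-wise in sterilized diluvial soil; cover with ~1.5 cm soil. Grow 14 days in greenhouse, 25° C. to 30° C. Spray foliage with emulsion diluted to predetermined amount. Rate effect after 3 weeks.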

Italian ryegrass [3] = experiment: Test Example 4: herbicidal effect by soil treatment (Table 19, symbol K); assay type: in vivo, Italian ryegrass (Lolium multiflorum); conditions: amount of applied herbicide 320 g/ha
In short: as §1

persian speedwell [4] = experiment: Test Example 5: herbicidal effect by foliage application, plastic box (Table 20, symbol R); assay type: in vivo, Persian speedwell (Veronica persica); conditions: amount of applied herbicide 320 g/ha; foliage application after 14-day growth; evaluated three weeks after application
In short: as §2

windgrass [5] = experiment: Test Example 4: herbicidal effect by soil treatment (Table 19, symbol L); assay type: in vivo, windgrass (Apera spica-venti); conditions: amount of applied herbicide 320 g/ha
In short: as §1

persian speedwell [6] = experiment: Test Example 4: herbicidal effect by soil treatment (Table 19, symbol R); assay type: in vivo, Persian speedwell (Veronica persica); conditions: amount of applied herbicide 320 g/ha
In short: as §1

velvetleaf [7] = experiment: Test Example 4: herbicidal effect by soil treatment (Table 19, symbol M); assay type: in vivo, velvetleaf (Abutilon theophrasti); conditions: amount of applied herbicide 320 g/ha
In short: as §1

chickweed [8] = experiment: Test Example 4: herbicidal effect by soil treatment (Table 19, symbol P); assay type: in vivo, common chickweed (Stellaria media); conditions: amount of applied herbicide 320 g/ha
In short: as §1

Japanese bulrush = experiment: Test Example 2: herbicidal activity, application during weed generation under submerged conditions (Table 17, symbol B); assay type: in vivo, Japanese bulrush (Schoenoplectus juncoides); conditions: AAH 320 g/ha; application during weed generation, submerged conditions
In short: (§3)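 Alluvial soil in Wagner pots was flooded to 4 cm depth and sown with the three weeds together; pots were kept in a greenhouse at 25° C. to 30° C. At the one to two leaf stage, an emulsion formulation diluted in water to a set rate went onto the water surface; scored three weeks later.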

blackgrass [9] = experiment: Test Example 5: herbicidal effect by foliage application, plastic box (Table 20, symbol J); assay type: in vivo, blackgrass (Alopecurus myosuroides); conditions: amount of applied herbicide 320 g/ha; foliage application after 14-day growth; evaluated three weeks after application
In short: as §2

barnyard grass [10] = experiment: Test Example 5: herbicidal effect by foliage application, plastic box (Table 20, symbol H); assay type: in vivo, barnyard grass (Echinochloa crus-galli); conditions: amount of applied herbicide 320 g/ha; foliage application after 14-day growth; evaluated three weeks after application
In short: as §2

wild oat [11] = experiment: Test Example 4: herbicidal effect by soil treatment (Table 19, symbol I); assay type: in vivo, wild oat (Avena fatua); conditions: amount of applied herbicide 320 g/ha
In short: as §1

windgrass [12] = experiment: Test Example 5: herbicidal effect by foliage application, plastic box (Table 20, symbol L); assay type: in vivo, windgrass (Apera spica-venti); conditions: amount of applied herbicide 320 g/ha; foliage application after 14-day growth; evaluated three weeks after application
In short: as §2

lambsquarters [13] = experiment: Test Example 4: herbicidal effect by soil treatment (Table 19, symbol O); assay type: in vivo, lambsquarters (Chenopodium album); conditions: amount of applied herbicide 320 g/ha
In short: as §1

blackgrass [14] = experiment: Test Example 4: herbicidal effect by soil treatment (Table 19, symbol J); assay type: in vivo, blackgrass (Alopecurus myosuroides); conditions: amount of applied herbicide 320 g/ha
In short: as §1

wild oat [15] = experiment: Test Example 5: herbicidal effect by foliage application, plastic box (Table 20, symbol I); assay type: in vivo, wild oat (Avena fatua); conditions: amount of applied herbicide 320 g/ha; foliage application after 14-day growth; evaluated three weeks after application
In short: as §2

redroot pigweed [16] = experiment: Test Example 5: herbicidal effect by foliage application, plastic box (Table 20, symbol N); assay type: in vivo, redroot pigweed (Amaranthus retroflexus); conditions: amount of applied herbicide 320 g/ha; foliage application after 14-day growth; evaluated three weeks after application
In short: as §2

green foxtail [17] = experiment: Test Example 4: herbicidal effect by soil treatment (Table 19, symbol G); assay type: in vivo, green foxtail (Setaria viridis); conditions: amount of applied herbicide 320 g/ha
In short: as §1

Chinese sprangletop = experiment: Test Example 3: herbicidal effect by foliage application, Wagner pot (Table 18, symbol D); assay type: in vivo, chinese sprangletop (Leptochloa chinensis); conditions: 320 g/ha
In short: (§4)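 Plants were sown in alluvial soil held under 0.1–0.5 cm standing water and grown 14 days in a greenhouse at 25–30 °C. An emulsifiable formulation, water-diluted to the set dose, was then sprayed onto the foliage, and effects were scored three weeks later using previously defined criteria.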

late watergrass = experiment: Test Example 2: herbicidal activity, application during weed generation under submerged conditions (Table 17, symbol A); assay type: in vivo, late watergrass (Echinochloa oryzicola); conditions: AAH 320 g/ha; application during weed generation, submerged conditions
In short: as §3

lambsquarters [18] = experiment: Test Example 5: herbicidal effect by foliage application, plastic box (Table 20, symbol O); assay type: in vivo, lambsquarters (Chenopodium album); conditions: amount of applied herbicide 320 g/ha; foliage application after 14-day growth; evaluated three weeks after application
In short: as §2

barnyard grass [19] = experiment: Test Example 3: herbicidal effect by foliage application, Wagner pot (Table 18, symbol H); assay type: in vivo, barnyard grass (Echinochloa crus-galli); conditions: 320 g/ha
In short: as §4

redroot pigweed [20] = experiment: Test Example 4: herbicidal effect by soil treatment (Table 19, symbol N); assay type: in vivo, redroot pigweed (Amaranthus retroflexus); conditions: amount of applied herbicide 320 g/ha
In short: as §1

chickweed [21] = experiment: Test Example 5: herbicidal effect by foliage application, plastic box (Table 20, symbol P); assay type: in vivo, common chickweed (Stellaria media); conditions: amount of applied herbicide 320 g/ha; foliage application after 14-day growth; evaluated three weeks after application
In short: as §2

rice flat sedge = experiment: Test Example 3: herbicidal effect by foliage application, Wagner pot (Table 18, symbol E); assay type: in vivo, rice flat sedge (Cyperus iria); conditions: 320 g/ha
In short: as §4

green foxtail [22] = experiment: Test Example 5: herbicidal effect by foliage application, plastic box (Table 20, symbol G); assay type: in vivo, green foxtail (Setaria viridis); conditions: amount of applied herbicide 320 g/ha; foliage application after 14-day growth; evaluated three weeks after application
In short: as §2

southern crabgrass [23] = experiment: Test Example 4: herbicidal effect by soil treatment (Table 19, symbol F); assay type: in vivo, southern crabgrass (Digitaria ciliaris); conditions: amount of applied herbicide 320 g/ha
In short: as §1

southern crabgrass [24] = experiment: Test Example 5: herbicidal effect by foliage application, plastic box (Table 20, symbol F); assay type: in vivo, southern crabgrass (Digitaria ciliaris); conditions: amount of applied herbicide 320 g/ha; foliage application after 14-day growth; evaluated three weeks after application
In short: as §2

oval-leafed pondweed = experiment: Test Example 2: herbicidal activity, application during weed generation under submerged conditions (Table 17, symbol C); assay type: in vivo, oval-leafed pondweed (Monochoria vaginalis); conditions: AAH 320 g/ha; application during weed generation, submerged conditions
In short: as §3

Italian ryegrass [25] = experiment: Test Example 5: herbicidal effect by foliage application, plastic box (Table 20, symbol K); assay type: in vivo, Italian ryegrass (Lolium multiflorum); conditions: amount of applied herbicide 320 g/ha; foliage application after 14-day growth; evaluated three weeks after application
In short: as §2

Cc1nn(C)c(=O)c(-c2c(-c3ccc(F)cc3)sc3cc(Cl)c(Cl)cc23)c1O [5-039]
H: barnyard grass, herbicidal effect grade (barnyard grass [1]): 0 (Herbicidal rate of 5% or less (almost no effect)) | Herbicidal effect by foliage application, M: velvetleaf (velvetleaf [2]): 3 (Herbicidal rate of 40% or more and less than 70%) | K: Italian ryegrass, herbicidal effect grade (Italian ryegrass [3]): 0 (Herbicidal rate of 5% or less (almost no effect)) | Herbicidal effect by foliage application, R: persian speedwell (persian speedwell [4]): 4 (Herbicidal rate of 70% or more and less than 90%) | L: windgrass, herbicidal effect grade (windgrass [5]): 0 (Herbicidal rate of 5% or less (almost no effect)) | R: persian speedwell, herbicidal effect grade (persian speedwell [6]): 0 (Herbicidal rate of 5% or less (almost no effect)) | M: velvetleaf, herbicidal effect grade (velvetleaf [7]): 0 (Herbicidal rate of 5% or less (almost no effect)) | P: chickweed, herbicidal effect grade (chickweed [8]): 0 (Herbicidal rate of 5% or less (almost no effect)) | herbicidal effect rating, B: Japanese bulrush (Japanese bulrush): 0 (Herbicidal rate of 5% or less (almost no effect)) | Herbicidal effect by foliage application, J: blackgrass (blackgrass [9]): 4 (Herbicidal rate of 70% or more and less than 90%) | Herbicidal effect by foliage application, H: barnyard grass (barnyard grass [10]): 4 (Herbicidal rate of 70% or more and less than 90%) | I: wild oat, herbicidal effect grade (wild oat [11]): 0 (Herbicidal rate of 5% or less (almost no effect)) | Herbicidal effect by foliage application, L: windgrass (windgrass [12]): 5 (Herbicidal rate of 90% or more (almost completely withered)) | O: lambsquarters, herbicidal effect grade (lambsquarters [13]): 1 (Herbicidal rate of 5% or more and less than 20%) | J: blackgrass, herbicidal effect grade (blackgrass [14]): 0 (Herbicidal rate of 5% or less (almost no effect)) | Herbicidal effect by foliage application, I: wild oat (wild oat [15]): 5 (Herbicidal rate of 90% or more (almost completely withered)) | Herbicidal effect by foliage application, N: redroot pigweed (redroot pigweed [16]): 5 (Herbicidal rate of 90% or more (almost completely withered)) | G: green foxtail, herbicidal effect grade (green foxtail [17]): 0 (Herbicidal rate of 5% or less (almost no effect)) | herbicidal effect on Chinese sprangletop (D) (Chinese sprangletop): 3 (Herbicidal rate of 40% or more and less than 70%) | herbicidal effect rating, A: late watergrass (late watergrass): 3 (Herbicidal rate of 40% or more and less than 70%) | Herbicidal effect by foliage application, O: lambsquarters (lambsquarters [18]): 5 (Herbicidal rate of 90% or more (almost completely withered)) | herbicidal effect on barnyard grass (H) (barnyard grass [19]): 4 (Herbicidal rate of 70% or more and less than 90%) | N: redroot pigweed, herbicidal effect grade (redroot pigweed [20]): 3 (Herbicidal rate of 40% or more and less than 70%) | Herbicidal effect by foliage application, P: chickweed (chickweed [21]): 5 (Herbicidal rate of 90% or more (almost completely withered)) | herbicidal effect on rice flat sedge (E) (rice flat sedge): 5 (Herbicidal rate of 90% or more (almost completely withered)) | Herbicidal effect by foliage application, G: green foxtail (green foxtail [22]): 5 (Herbicidal rate of 90% or more (almost completely withered)) | F: southern crabgrass, herbicidal effect grade (southern crabgrass [23]): 0 (Herbicidal rate of 5% or less (almost no effect)) | Herbicidal effect by foliage application, F: southern crabgrass (southern crabgrass [24]): 4 (Herbicidal rate of 70% or more and less than 90%) | herbicidal effect rating, C: oval-leafed pondweed (oval-leafed pondweed): 0 (Herbicidal rate of 5% or less (almost no effect)) | Herbicidal effect by foliage application, K: Italian ryegrass (Italian ryegrass [25]): 4 (Herbicidal rate of 70% or more and less than 90%)

From patent publication US20230085307A1, “PYRIDAZINONE COMPOUND AND HERBICIDE” (NISSAN CHEMICAL CORPORATION, priority 2019, published 2023)
